Measurements: paper PMC8398472, “Anticancer Diiron Vinyliminium Complexes: A Structure–Activity Relationship Study” (Pharmaceutics, 2021)
Where “and” joins values, the source holds several entries; their conditions need not be identical. Equal values may be shown once.

Tests used:
[1] = Solubility in D2O by 1H NMR (Me2SO2 internal standard); assay type: physicochemical; conditions: for Solubility: 21 °C
Experimental: (§1) • (a) Solubility in D2O. A suspension of the selected diiron compound (3–5 mg) in a D2O solution (ca. 1 mL) containing Me2SO2 (3.36 × 10^−3 M) as internal standard was vigorously stirred at 21 °C for 1.5 h. The resulting saturated solution was filtered over celite, transferred into an NMR tube and then analyzed by ^1H NMR spectroscopy (delay time = 3 s; number of scans = 20). The concentration (solubility) was calculated by the relative integral (related to Cp and/or NMe signals) with respect to Me2SO2 (δ = 3.14 ppm). • (b) Stability in DMSO-d6/D2O solution. The selected diiron compound (ca. 4 mg) was added of 1 mL of D2O (3a,c) or DMSO-d6/D2O (2:1 v/v) mixture (2a,c, 3b, 4a–c, 5a–c, 6a–c, 7), containing Me2SO2 (3.36 × 10^−3 M). The resulting mixture was stirred for 30 min and then filtered over celite; the filtrated solution was transferred into an NMR tube. The sample was analyzed by ^1H NMR (time = 0) and then heated at 37 °C for 72 h. After cooling to room temperature, the solution was separated from a small amount of solid by filtration over celite, and the new ^1H NMR spectrum was recorded (delay time = 3 s; number of scans = 20). In every case, no newly formed organometallic species was detected. The amount of starting material in solution (% with respect to the initial spectrum) was calculated by the relative integral (vs. Cp and/or NMe signals) with respect to Me2SO2 as internal standard.

[2] = Stability in DMSO-d6/D2O or D2O solution at 37 °C for 72 h (1H NMR); assay type: physicochemical; conditions: DMSO-d6/D2O (2:1 v/v), 72 h at 37 °C
Experimental: as §1

[3] = Octanol–water partition coefficient (shake-flask, UV–Vis); assay type: physicochemical; conditions: 21 °C
Experimental: • (c) Octanol–water partition coefficients (Log Pow). Partition coefficients (Pow; IUPAC: KD partition constant), defined as Pow = corg/caq, where corg and caq are molar concentrations of the selected compound in the organic and aqueous phase, respectively, were determined by the shake-flask method and UV–Vis measurements. Deionized water and 1-octanol were vigorously stirred for 24 h to enable saturation of both phases, then separated by centrifugation. A stock solution of the selected diiron compound (ca. 2 mg; 2a–c, 3b, 4a–c, 5a, 5c, 6b,c, 7) was prepared by first adding acetone (50 μL, to help solubilization), followed by water-saturated octanol (2.5 mL). The solution was diluted with water-saturated octanol (ca. 1:3 v/v ratio, cFe2 ≈ 10^−4 M, so that 1.5 ≤ A ≤ 2.0 at λmax) and the UV–Vis spectrum was recorded (A^0org). An aliquot of the solution (Vorg = 1.2 mL) was transferred into a test tube and octanol-saturated water (Vorg = Vaq = 1.2 mL) was added. The mixture was vigorously stirred for 15 min at 21 °C and then centrifuged (5000 rpm, 10 min). The UV–Vis spectrum of the organic phase was recorded (A^forg) and the partition coefficient was calculated as Pow = A^forg/(A^0org − A^forg), where A^0org and A^forg are the absorbance in the organic phase before and after partition with the aqueous phase, respectively. An inverse procedure was followed for 3a, 3c, 5b and 6a, starting from a solution of the compound in octanol-saturated water. The partition coefficient was calculated as Pow = (A^0aq − A^faq)/A^faq where A^0aq and A^faq are the absorbance in the aqueous phase before and after partition with the organic phase, respectively. The wavelength of the maximum absorption of each compound (ca. 300 nm) was used for UV–Vis quantitation. The procedure was repeated three times for each sample (from the same stock solution); results are given as mean ± standard deviation.

[4] = tested on: human ovarian carcinoma cisplatin-sensitive A2780; experiment: Cytotoxicity, WST-1 cell viability assay, A2780; assay type: cell-based; conditions: for IC50: 72 h exposure; for Selectivity index (S.I.): ratio between IC50 for Balb/3T3 and IC50 for A2780
Experimental: (§2) In vitro cytotoxicity investigations were carried out by using human ovarian carcinoma cisplatin-sensitive A2780 (ECACC93112519), human ovarian carcinoma cisplatin-resistant A2780cisR (ECACC 93112517) and mouse embryo fibroblasts Balb/3T3 clone A31 (ATCC CCL-163) cell lines. A2780 and A2780cisR were purchased from the European Collection of Authenticated Cell Cultures (ECACC), and Balb/3T3 clone A31 cell line from the American Type Culture Collection (ATCC).
(§3) A2780 and A2780cisR cells were routinely cultured in RPMI 1640 (Merck) containing 2 mM of L-glutamine (Merck), 1% of penicillin/streptomycin solution (Merck—10 000 U mL^−1: 10 mg mL^−1), 10% of fetal bovine serum (Merck—FBS) and antimycotic (InvivoGen, USA), and Balb/3T3 clone A31 in Dulbecco’s modified Eagle medium (Merck—DMEM) supplemented with 4 mM of L-glutamine, 1% of penicillin/streptomycin solution, 10% of calf serum (Merck) and antimycotic. […] The cultures were maintained at 37 °C and in a 5% CO2-enriched atmosphere.
(§4) A2780, A2780cisR and Balb/3T3 clone A31 cells were seeded in 96-well tissue culture polystyrene plates at a concentration of 3 × 10^3, 6 × 10^3 and 1 × 10^3 cells per well, respectively. After overnight incubation, the cells were treated with different concentrations (0–100 µM) of the selected compounds for 72 h at 37 °C in a 5% atmosphere of CO2. Stock solutions of compounds were prepared in DMSO and sequentially diluted in medium (final DMSO concentration of 0.5%). […] At the end of the incubation time, cell viability was assessed by means of WST-1 tetrazolium salt reagent (Roche). Briefly, cells were incubated for 4 h with the tetrazolium salt reagent diluted 1:10, at 37 °C and 5% CO2. Measurements of formazan dye absorbance, which directly correlates with the number of viable cells, were carried out with a micro-plate reader (Biorad) at 450 nm, using 655 nm as reference wavelength. The 50% inhibitory concentration (IC50) refers to compound concentration at which 50% of cell death is observed with respect to the control. For each tested compound, assay was performed on triplicate. The concentration effect curves were generated by nonlinear regression curves (GraphPad Prism Software, 2021) and the data reported as mean ± standard deviation.

[5] = tested on: mouse embryo fibroblasts Balb/3T3 clone A31; experiment: Cytotoxicity, WST-1 cell viability assay, Balb/3T3 clone A31; assay type: cell-based; conditions: 72 h exposure
Experimental: as §2, §3, §4

Substance	Solubility in D2O (in words) [1]	Stability % (residual % of starting material) [2] [%]	Log Pow [3]	Solubility [1]	IC50 [4] [µM]	Selectivity index (S.I.) [4]	IC50 [5] [µM]
[Fe2Cp2(CO)(μ-CO){μ-η^1:η^3-C^3(Me)C^2(Me)C^1N(CH2Ph)2}]CF3SO3 [Compound 2c]	almost insoluble in D2O	87	0.56 ± 0.08		1.91 ± 0.15	9	18 ± 3
[Fe2Cp2(CO)(μ-CO){μ-η^1:η^3-C^3(Me)C^2(Me)C^1NMe(2-naphthyl)}]CF3SO3 [Compound 7]	almost insoluble in D2O	66	0.38 ± 0.02		2.2 ± 0.2	22	48 ± 3
[Fe2Cp2(CO)(μ-CO){μ-η^1:η^3-C^3(Me)C^2(Me)C^1NMe(4-C6H4OMe)}]CF3SO3 [Compound 6c]		86	−0.21 ± 0.01	1.06 × 10^−3 mol·L^−1 and 0.69 g·L^−1	3.8 ± 0.4	>26	> 100
[Fe2Cp2(CO)(μ-CO){μ-η^1:η^3-C^3(Me)C^2(Me)C^1NMe(CH2Ph)}]CF3SO3 [Compound 5b]		90	−0.43 ± 0.01	1.52 × 10^−3 mol·L^−1 and 0.96 g·L^−1	5.1 ± 0.3	>19	> 100
[Fe2Cp2(CO)(μ-CO){μ-η^1:η^3-C^3(Me)C^2(Me)C^1NMe(Cy)}]CF3SO3 [Compound 4c]		95	−0.17 ± 0.01	2.63 × 10^−3 mol·L^−1 and 1.64 g·L^−1	1.8 ± 0.2	52	94 ± 16

More lines, main results first:

Solubility in D2O (in words) [1]	Stability % (residual % of starting material) [2] [%]	Log Pow [3]	Solubility [1]	Substance	IC50 [4] [µM]	Selectivity index (S.I.) [4]	IC50 [5] [µM]
	95	−0.29 ± 0.03	3.49 × 10^−3 mol·L^−1 and 2.13 g·L^−1	[Fe2Cp2(CO)(μ-CO){μ-η^1:η^3-C^3(Me)C^2HC^1NMe(Cy)}]CF3SO3 [Compound 4a]	3.3 ± 0.4	>30	> 100
	76	0.37 ± 0.04		[Fe2Cp2(CO)(μ-CO){μ-η^1:η^3-C^3(Ph)C^2HC^1NMe(4-C6H4OMe)}]CF3SO3 [Compound 6b]	3.8 ± 0.4	10	39 ± 3
	68	−0.09 ± 0.01	2.34 × 10^−3 mol·L^−1 and 1.48 g·L^−1	[Fe2Cp2(CO)(μ-CO){μ-η^1:η^3-C^3(Ph)C^2HC^1NMe(CH2CH = CH2)}]CF3SO3 [Compound 3b]	6 ± 0.8	>16	> 100
